According to the OligoGym collection:
Oligonucleotides are given in HELM: sugar(base)linkage, 5' to 3'; d 2'-deoxyribose, r ribose, m 2'-O-methylribose, p phosphate. ss, as = sense and antisense strand

Each substance was assayed against Cacnb1 (rat) (assay: reporter assay of Huesken 2005). Conditions: siRNA.
Note: test concentration or dose not given here.

Substance	normalised inhibition (eCFP-eYFP dual reporter) [%]
RNA1{r(G)p.r(U)p.r(G)p.r(C)p.r(G)p.r(G)p.r(A)p.r(G)p.r(G)p.r(G)p.r(U)p.r(G)p.r(G)p.r(U)p.r(G)p.r(G)p.r(G)p.r(C)p.r(C)p.d(T)p.d(T)}|RNA2{r(G)p.r(G)p.r(C)p.r(C)p.r(C)p.r(A)p.r(C)p.r(C)p.r(A)p.r(C)p.r(C)p.r(C)p.r(U)p.r(C)p.r(C)p.r(G)p.r(C)p.r(A)p.r(C)p.d(A)p.d(G)}$$$RNA1{StrandType:ss}|RNA2{StrandType:as}$	52.4
RNA1{r(U)p.r(A)p.r(C)p.r(A)p.r(C)p.r(G)p.r(G)p.r(A)p.r(G)p.r(C)p.r(C)p.r(A)p.r(G)p.r(G)p.r(A)p.r(G)p.r(A)p.r(C)p.r(U)p.d(T)p.d(T)}|RNA2{r(A)p.r(G)p.r(U)p.r(C)p.r(U)p.r(C)p.r(C)p.r(U)p.r(G)p.r(G)p.r(C)p.r(U)p.r(C)p.r(C)p.r(G)p.r(U)p.r(G)p.r(U)p.r(A)p.d(G)p.d(A)}$$$RNA1{StrandType:ss}|RNA2{StrandType:as}$	54.9
RNA1{r(U)p.r(A)p.r(C)p.r(A)p.r(U)p.r(C)p.r(C)p.r(G)p.r(C)p.r(U)p.r(G)p.r(A)p.r(G)p.r(A)p.r(G)p.r(G)p.r(C)p.r(A)p.r(G)p.d(T)p.d(T)}|RNA2{r(C)p.r(U)p.r(G)p.r(C)p.r(C)p.r(U)p.r(C)p.r(U)p.r(C)p.r(A)p.r(G)p.r(C)p.r(G)p.r(G)p.r(A)p.r(U)p.r(G)p.r(U)p.r(A)p.d(G)p.d(A)}$$$RNA1{StrandType:ss}|RNA2{StrandType:as}$	39.5
RNA1{r(U)p.r(C)p.r(C)p.r(U)p.r(G)p.r(C)p.r(A)p.r(C)p.r(A)p.r(U)p.r(C)p.r(A)p.r(A)p.r(G)p.r(G)p.r(A)p.r(G)p.r(A)p.r(A)p.d(T)p.d(T)}|RNA2{r(U)p.r(U)p.r(C)p.r(U)p.r(C)p.r(C)p.r(U)p.r(U)p.r(G)p.r(A)p.r(U)p.r(G)p.r(U)p.r(G)p.r(C)p.r(A)p.r(G)p.r(G)p.r(A)p.d(A)p.d(G)}$$$RNA1{StrandType:ss}|RNA2{StrandType:as}$	94
RNA1{r(U)p.r(C)p.r(G)p.r(A)p.r(C)p.r(A)p.r(G)p.r(A)p.r(G)p.r(C)p.r(A)p.r(C)p.r(G)p.r(U)p.r(G)p.r(C)p.r(C)p.r(C)p.r(C)p.d(T)p.d(T)}|RNA2{r(G)p.r(G)p.r(G)p.r(G)p.r(C)p.r(A)p.r(C)p.r(G)p.r(U)p.r(G)p.r(C)p.r(U)p.r(C)p.r(U)p.r(G)p.r(U)p.r(C)p.r(G)p.r(A)p.d(C)p.d(T)}$$$RNA1{StrandType:ss}|RNA2{StrandType:as}$	39.9
RNA1{r(U)p.r(C)p.r(G)p.r(G)p.r(G)p.r(A)p.r(G)p.r(G)p.r(C)p.r(U)p.r(G)p.r(G)p.r(U)p.r(G)p.r(A)p.r(A)p.r(G)p.r(G)p.r(A)p.d(T)p.d(T)}|RNA2{r(U)p.r(C)p.r(C)p.r(U)p.r(U)p.r(C)p.r(A)p.r(C)p.r(C)p.r(A)p.r(G)p.r(C)p.r(C)p.r(U)p.r(C)p.r(C)p.r(C)p.r(G)p.r(A)p.d(T)p.d(C)}$$$RNA1{StrandType:ss}|RNA2{StrandType:as}$	73.7
RNA1{r(U)p.r(G)p.r(G)p.r(A)p.r(C)p.r(A)p.r(G)p.r(C)p.r(C)p.r(U)p.r(U)p.r(C)p.r(G)p.r(C)p.r(C)p.r(U)p.r(G)p.r(C)p.r(U)p.d(T)p.d(T)}|RNA2{r(A)p.r(G)p.r(C)p.r(A)p.r(G)p.r(G)p.r(C)p.r(G)p.r(A)p.r(A)p.r(G)p.r(G)p.r(C)p.r(U)p.r(G)p.r(U)p.r(C)p.r(C)p.r(A)p.d(G)p.d(T)}$$$RNA1{StrandType:ss}|RNA2{StrandType:as}$	39.5
RNA1{r(U)p.r(G)p.r(G)p.r(U)p.r(G)p.r(G)p.r(G)p.r(A)p.r(C)p.r(C)p.r(A)p.r(U)p.r(C)p.r(G)p.r(C)p.r(U)p.r(C)p.r(A)p.r(A)p.d(T)p.d(T)}|RNA2{r(U)p.r(U)p.r(G)p.r(A)p.r(G)p.r(C)p.r(G)p.r(A)p.r(U)p.r(G)p.r(G)p.r(U)p.r(C)p.r(C)p.r(C)p.r(A)p.r(C)p.r(C)p.r(A)p.d(G)p.d(G)}$$$RNA1{StrandType:ss}|RNA2{StrandType:as}$	71.2
RNA1{r(U)p.r(U)p.r(A)p.r(G)p.r(C)p.r(C)p.r(C)p.r(A)p.r(G)p.r(C)p.r(U)p.r(C)p.r(G)p.r(A)p.r(G)p.r(A)p.r(A)p.r(A)p.r(G)p.d(T)p.d(T)}|RNA2{r(C)p.r(U)p.r(U)p.r(U)p.r(C)p.r(U)p.r(C)p.r(G)p.r(A)p.r(G)p.r(C)p.r(U)p.r(G)p.r(G)p.r(G)p.r(C)p.r(U)p.r(A)p.r(A)p.d(G)p.d(G)}$$$RNA1{StrandType:ss}|RNA2{StrandType:as}$	63.7
RNA1{r(U)p.r(U)p.r(U)p.r(C)p.r(A)p.r(U)p.r(C)p.r(C)p.r(C)p.r(C)p.r(A)p.r(G)p.r(C)p.r(C)p.r(C)p.r(U)p.r(G)p.r(U)p.r(C)p.d(T)p.d(T)}|RNA2{r(G)p.r(A)p.r(C)p.r(A)p.r(G)p.r(G)p.r(G)p.r(C)p.r(U)p.r(G)p.r(G)p.r(G)p.r(G)p.r(A)p.r(U)p.r(G)p.r(A)p.r(A)p.r(A)p.d(C)p.d(C)}$$$RNA1{StrandType:ss}|RNA2{StrandType:as}$	16.4
